Values of other authors in US10016389B2, “Method of making liposomes, liposome compositions made by the methods, and methods of using the same” (LivOn Laboratories, priority 2011, dated 2018).

Experiments:
[1] = not given; remark: listed apart in the source
[2] = rat populations
[3] = not given; remark: listed apart in the source
[4] = not given; remark: listed apart in the source
[5] = 1000 mg daily, 42 days

Compound | survival rate after a stroke vs untreated animals | improvement of insulin sensitivity ([1]; oral 600, 1200 or 1800 mg/day, after 4 weeks) [%] | improvement of insulin-stimulated glucose disposal (insulin sensitivity) ([1]; single intravenous infusion of 1000 mg, vs placebo infusion) [%] | oral LD50 [2] | peak plasma concentrations ([3]; 3 g orally every 4 hours, predicted by pharmacokinetic modeling) [µmol/L] | half-life ([3]; in vivo) [min] | plasma concentrations ([3]; intravenous administration) | reduction of risk of cerebrovascular deaths ([4]; Linxian trial, 120 mg daily plus molybdenum for 5-6 years, 10 years follow-up) [%] | lower risk of coronary heart disease ([4]; ≥700 mg/day, pooled analysis of nine studies) [%] | average fasting blood glucose levels ([5]; fell from 169.33 mg/dl) [mg/dL] | average LDL ([5]; reduced from 130.95 mg/dl) [mg/dL] | Average HbA1C ([5]; reduced from 8,82%) [%] | Insulin levels ([5]; reduced from 16.91 microunits/mL) [microunits/mL]
O=C(O)CCCCC1CCSS1 (racemic) [racemic ALA, alpha lipoic acid] | four times greater survival rate | 25 | 50 |  |  |  |  |  |  |  |  |  | 
O=C1O[C@H]([C@@H](O)CO)C(O)=C1O [vitamin C, L-ascorbic acid] |  |  |  | 11,900 mg per kg | 220 | 30 | ≤ 26,000 micromol/L | 8 | 25 | 144.80 | 125.91 | 7.66 | 8.77
